Assays:
[1] = molecular target: 11-beta-hydroxysteroid dehydrogenase 1 (Homo sapiens, UniProt P28845); experiment: Inhibition of human 11beta-HSD1 expressed in HEK293 cells assessed as [3H]cortisol production after 60 mins by SPA; format: cell-based
[2] = molecular target: 11-beta-hydroxysteroid dehydrogenase 1 (Mus musculus, UniProt P50172); experiment: Inhibition of mouse 11beta-HSD1 expressed in HEK293 cells assessed as [3H]cortisol production after 60 mins by SPA; format: cell-based
[3] = system: HEK293; experiment: Selectivity ratio of IC50 for human 11beta-HSD1 expressed in HEK293 cells to IC50 for mouse 11beta-HSD1 expressed in HEK293 cells; format: cell-based
[4] = molecular target: T1, 11-beta-hydroxysteroid dehydrogenase type 2 (Mus musculus, UniProt P51661); experiment: Inhibition of mouse 11beta-HSD2 expressed in HEK293 cells assessed as [3H]cortisol production after 60 mins by SPA; format: cell-based
T1 sequence (P51661 whole entry): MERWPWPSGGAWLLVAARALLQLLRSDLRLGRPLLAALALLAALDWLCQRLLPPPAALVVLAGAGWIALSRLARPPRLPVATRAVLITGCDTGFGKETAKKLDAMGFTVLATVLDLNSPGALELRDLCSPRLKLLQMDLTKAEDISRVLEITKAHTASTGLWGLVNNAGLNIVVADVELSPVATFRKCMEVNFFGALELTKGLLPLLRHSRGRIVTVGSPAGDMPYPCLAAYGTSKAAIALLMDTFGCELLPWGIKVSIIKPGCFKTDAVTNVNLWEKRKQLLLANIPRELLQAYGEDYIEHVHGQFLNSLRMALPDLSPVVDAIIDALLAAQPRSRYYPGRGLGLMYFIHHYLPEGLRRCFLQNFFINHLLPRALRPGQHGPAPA

[5] = molecular target: T2, 11-beta-hydroxysteroid dehydrogenase type 2 (Homo sapiens, UniProt P80365); experiment: Inhibition of human 11beta-HSD2 expressed in HEK293 cells assessed as [3H]cortisol production after 60 mins by SPA; format: cell-based
T2 sequence (P80365 whole entry): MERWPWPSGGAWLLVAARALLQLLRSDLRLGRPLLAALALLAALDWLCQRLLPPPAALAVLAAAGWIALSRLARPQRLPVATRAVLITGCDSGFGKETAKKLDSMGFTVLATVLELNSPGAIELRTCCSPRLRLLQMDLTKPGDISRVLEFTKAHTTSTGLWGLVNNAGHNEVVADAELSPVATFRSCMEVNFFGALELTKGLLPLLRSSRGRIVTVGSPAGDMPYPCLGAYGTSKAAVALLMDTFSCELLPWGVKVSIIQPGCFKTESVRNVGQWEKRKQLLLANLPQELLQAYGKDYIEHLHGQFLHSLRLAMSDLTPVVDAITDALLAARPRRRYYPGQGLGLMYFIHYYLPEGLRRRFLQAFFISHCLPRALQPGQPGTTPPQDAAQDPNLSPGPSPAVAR

[6] = system: Mus musculus; experiment: Antidiabetic activity in ob/ob mouse type 2 diabetes model assessed as reduction in fasting blood glucose level at 50 mg/kg, ip once daily for 5 days measured on day 10; format: functional; design: scale not given: the % may be the effect or the level left; conditions: route intraperitoneal
[7] = system: Mus musculus; experiment: Antidiabetic activity in ob/ob mouse type 2 diabetes model assessed as reduction in blood glucose level at 50 mg/kg, ip once daily for 5 days measured on day 15; format: functional; design: scale not given: the % may be the effect or the level left; conditions: route intraperitoneal
[8] = Tmax in po dosed Sprague-Dawley rat; format: ADME, organism-based; conditions: in vivo
[9] = system: Mus musculus; experiment: Antidiabetic activity in ob/ob mouse type 2 diabetes model assessed as reduction in blood glucose level at 50 mg/kg, ip once daily for 5 days measured on day 10; format: functional; design: scale not given: the % may be the effect or the level left; conditions: route intraperitoneal
[10] = Mean residence time in po dosed Sprague-Dawley rat; format: ADME, organism-based; conditions: in vivo
[11] = system: Mus musculus; experiment: Antidiabetic activity in ob/ob mouse type 2 diabetes model assessed as reduction in nonfasting blood glucose level at 50 mg/kg, ip once daily for 20 days; format: functional; design: scale not given: the % may be the effect or the level left; conditions: route intraperitoneal
[12] = system: Mus musculus; experiment: Toxicity in ob/ob mouse type 2 diabetes model assessed as effect on food intake at 50 mg/kg, ip once daily for 20 days measured every 4 days for 20 days; format: organism-based; design: dose 50 mg/kg, route intraperitoneal; conditions: in vivo, 480 h
[13] = system: Mus musculus; experiment: Antidiabetic activity in ob/ob mouse type 2 diabetes model assessed as reduction in fasting blood glucose level at 50 mg/kg, ip once daily for 5 days measured on day 15; format: functional; design: scale not given: the % may be the effect or the level left; conditions: route intraperitoneal
[14] = AUC in Sprague-Dawley rat at 5 mg/kg, po; format: ADME, organism-based; design: dose 5 mg/kg, route oral; conditions: plasma
[15] = AUC (0 to t) in po dosed Sprague-Dawley rat; format: ADME, organism-based; conditions: plasma
[16] = system: Mus musculus; experiment: Antidiabetic activity in ob/ob mouse type 2 diabetes model assessed as reduction in blood glucose level at 50 mg/kg, ip once daily for 5 days measured on day 20; format: functional; design: scale not given: the % may be the effect or the level left; conditions: route intraperitoneal
[17] = system: Mus musculus; experiment: Antidiabetic activity in ob/ob mouse type 2 diabetes model assessed as reduction in fasting blood glucose level at 50 mg/kg, ip once daily for 20 days; format: functional; design: scale not given: the % may be the effect or the level left; conditions: route intraperitoneal
[18] = system: HEK293; experiment: Selectivity ratio of IC50 for human 11beta-HSD2 expressed in HEK293 cells to IC50 for human 11beta-HSD1 expressed in HEK293 cells; format: cell-based
[19] = system: Mus musculus; experiment: Toxicity in ob/ob mouse type 2 diabetes model assessed as effect on body weight at 50 mg/kg, ip once daily for 20 days measured every 5 days for 20 days; format: organism-based; design: dose 50 mg/kg, route intraperitoneal; conditions: in vivo, 480 h
[20] = Half life in po dosed Sprague-Dawley rat; format: ADME, organism-based; conditions: in vivo
[21] = system: Mus musculus; experiment: Antidiabetic activity in ob/ob mouse type 2 diabetes model assessed as reduction in fasting blood glucose level at 50 mg/kg, ip once daily for 5 days measured on day 20; format: functional; design: scale not given: the % may be the effect or the level left; conditions: route intraperitoneal
[22] = Cmax in po dosed Sprague-Dawley rat; format: ADME, organism-based; design: route oral; conditions: in vivo
[23] = system: Mus musculus; experiment: Antidiabetic activity in ob/ob mouse type 2 diabetes model assessed as reduction in nonfasting blood glucose level at 50 mg/kg, ip once daily for 5 days; format: functional; design: scale not given: the % may be the effect or the level left; conditions: route intraperitoneal
[24] = AUC (0 to infinity) in po dosed Sprague-Dawley rat; format: ADME, organism-based; design: route oral, time infinity; conditions: plasma

Chain of 11-beta-hydroxysteroid dehydrogenase 1 (Homo sapiens, UniProt P28845) (P28845 whole entry): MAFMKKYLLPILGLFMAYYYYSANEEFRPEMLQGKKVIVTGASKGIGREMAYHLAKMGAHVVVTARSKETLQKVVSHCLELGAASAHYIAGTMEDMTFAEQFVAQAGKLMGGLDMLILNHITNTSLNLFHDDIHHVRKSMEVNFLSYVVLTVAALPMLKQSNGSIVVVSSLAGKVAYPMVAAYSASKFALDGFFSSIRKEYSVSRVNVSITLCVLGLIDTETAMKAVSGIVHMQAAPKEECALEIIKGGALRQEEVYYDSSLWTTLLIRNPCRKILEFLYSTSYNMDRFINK
Chain of 11-beta-hydroxysteroid dehydrogenase 1 (Mus musculus, UniProt P50172) (P50172 whole entry): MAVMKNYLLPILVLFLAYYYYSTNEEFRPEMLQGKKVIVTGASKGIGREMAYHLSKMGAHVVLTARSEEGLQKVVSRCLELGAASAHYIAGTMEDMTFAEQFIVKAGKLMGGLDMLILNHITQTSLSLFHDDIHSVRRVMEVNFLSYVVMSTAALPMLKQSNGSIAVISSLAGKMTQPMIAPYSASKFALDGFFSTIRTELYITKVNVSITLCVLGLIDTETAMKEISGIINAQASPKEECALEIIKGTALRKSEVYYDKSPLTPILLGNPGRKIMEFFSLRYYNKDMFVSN

Structure (SMILES): O=C(NC1CCCCC1)c1ccc(CN2C(=O)Nc3ccc(Cl)cc3S2(=O)=O)cc1
- EC50 [1]: 686 nM
- EC50 [2]: 529 nM

Structure (SMILES): CN(C(=O)c1cccc(CN2C(=O)Nc3ccc(Cl)cc3S2(=O)=O)c1)C1C2CC3CC(C2)CC1C3 (configuration not stated)
- EC50 [1]: 4 nM
- EC50 [2]: 69 nM

Structure (SMILES): O=C(NC12CC3CC(CC(C3)C1)C2)c1ccc(CN2C(=O)Nc3ccc(Cl)cc3S2(=O)=O)cc1
- EC50 [1]: 47 nM
- EC50 [2]: 14 nM

Structure (SMILES): CN(C(=O)c1ccc(CN2C(=O)Nc3ccc(Cl)cc3S2(=O)=O)cc1)C1CCCCCC1
- EC50 [1]: 90 nM
- EC50 [2]: 210 nM

Structure (SMILES): CN(C(=O)c1ccc(CN2C(=O)Nc3ccc(Cl)cc3S2(=O)=O)cc1)C12CC3CC(CC(C3)C1)C2
- EC50 [1]: 70 nM
- EC50 [2]: 55 nM

Structure (SMILES): O=C(NC1CCCCCC1)N1CCC(CN2C(=O)Nc3ccc(Cl)cc3S2(=O)=O)CC1
- EC50 [1]: 283 nM
- EC50 [2]: 17 nM
- Ratio IC50 [3]: 3

Structure (SMILES): O=C(c1ccc(CN2C(=O)Nc3ccc(Cl)cc3S2(=O)=O)cc1)N(C1CCCCCC1)C1CC1
- EC50 [1]: 55 nM
- EC50 [2]: 84 nM

Structure (SMILES): O=C(c1cccc(CN2C(=O)Nc3ccc(Cl)cc3S2(=O)=O)c1)N(C1CCCCC1)C1CC1
- EC50 [1]: 3 nM
- EC50 [2]: 58 nM

Structure (SMILES): O=C(c1ccc(CN2C(=O)Nc3ccc(Cl)cc3S2(=O)=O)cc1)N(C1CCCCC1)C1CC1
- EC50 [1]: 60 nM
- EC50 [2]: 185 nM

Structure (SMILES): CN(C(=O)N1CCC(CN2C(=O)Nc3ccc(Cl)cc3S2(=O)=O)CC1)C1C2CC3CC(C2)CC1C3 (configuration not stated)
- EC50 [1]: 158 nM
- EC50 [4]: > 100000 nM
- EC50 [2]: 2 nM
- EC50 [5]: 720 nM
- Ratio IC50 [3]: 3

Structure (SMILES): O=C(NC1CCCCCC1)c1ccc(CN2C(=O)Nc3ccc(Cl)cc3S2(=O)=O)cc1
- EC50 [1]: 802 nM
- EC50 [2]: 145 nM

Structure (SMILES): CC1(C)[C@@H](O[C@H]2O[C@H](C(=O)O)[C@@H](O)[C@H](O)[C@H]2O[C@@H]2O[C@H](C(=O)O)[C@@H](O)[C@H](O)[C@H]2O)CC[C@]2(C)[C@H]3C(=O)C=C4[C@@H]5C[C@@](C)(C(=O)O)CC[C@]5(C)CC[C@@]4(C)[C@]3(C)CC[C@@H]12 [GLYCYRRHIZIN]
- EC50 [1]: 10 nM
- EC50 [2]: 8 nM

Structure (SMILES): O=C(NC1CCCCCCC1)c1ccc(CN2C(=O)Nc3ccc(Cl)cc3S2(=O)=O)cc1
- EC50 [1]: 443 nM
- EC50 [2]: 180 nM

Structure (SMILES): O=C(N1CCC(CN2C(=O)Nc3ccc(Cl)cc3S2(=O)=O)CC1)N(C1CCCCCC1)C1CC1
- EC50 [1]: 517 nM
- EC50 [2]: 10 nM
- Ratio IC50 [3]: 3

Structure (SMILES): CN(C(=O)N1CCC(CN2C(=O)Nc3ccc(Cl)cc3S2(=O)=O)CC1)C1CCCCCC1
- Activity [6]: 33.3%
- Activity [7]: 34.6%
- EC50 [1]: 21 nM
- Tmax [8]: 2 h
- Activity [9]: 27.9%
- MRT [10]: 4.24 h
- Activity [11]: 25.7%
- EC50 [4]: > 100000 nM
- Activity [12]: Non-toxic
- EC50 [2]: 0.41 nM
- Activity [13]: 39.4%
- EC50 [5]: 860 nM
- AUC [14]: 147 ng·h/mL
- AUC(0-t) [15]: 173 ng·h/mL
- Activity [16]: 35.6%
- Ratio IC50 [3]: 3
- Activity [17]: 31.4%
- Ratio IC50 [18]: 40
- Activity [19]: Non-toxic
- half-life [20]: 2.3 h
- Activity [21]: 36.1%
- Cmax [22]: 46.8 ng/mL
- Activity [23]: 25%
- AUC(0-inf) [24]: 209 ng·h/mL

Structure (SMILES): O=C(N1CCC(CN2C(=O)Nc3ccc(Cl)cc3S2(=O)=O)CC1)N(C1CCCCC1)C1CC1
- EC50 [1]: 121 nM
- EC50 [4]: > 100000 nM
- EC50 [2]: 37 nM
- EC50 [5]: 2200 nM
- Ratio IC50 [3]: 3

Structure (SMILES): O=C(c1cccc(CN2C(=O)Nc3ccc(Cl)cc3S2(=O)=O)c1)N(C1CCCCCC1)C1CC1
- EC50 [1]: 1 nM
- Tmax [8]: 2.3 h
- MRT [10]: 4.02 h
- EC50 [2]: 258 nM
- AUC(0-t) [15]: 15.5 ng·h/mL
- half-life [20]: 2.02 h
- Cmax [22]: 3.86 ng/mL
- AUC(0-inf) [24]: 16.1 ng·h/mL

Structure (SMILES): CN(C(=O)c1cccc(CN2C(=O)Nc3ccc(Cl)cc3S2(=O)=O)c1)C1CCCCCC1
- EC50 [1]: 4 nM
- EC50 [2]: 401 nM

Reference: ChEMBL document CHEMBL2021804, “Synthesis and evaluation of piperidine urea derivatives as efficacious 11β-hydroxysteroid dehydrogenase type 1 inhibitors in diabetic ob/ob mice” (Bioorg Med Chem Lett, 2012)
